According to article PMC8621413, “New Antifungal Compound: Impact of Cosolvency, Micellization and Complexation on Solubility and Permeability Processes” (Pharmaceutics, 2021):
Values after ≈ are worked out from the molar mass of the structure shown. Values joined by “and” are separate entries in the source; they are usually repeats but may differ in a detail not shown here. Identical values can stand only once. Like-named read-outs stand apart in the source and are kept apart here.

What was measured:
[1] = In vitro permeability, Franz diffusion cell, regenerated cellulose membrane; assay type: in vitro ADME; conditions: for Papp at 5 h: read-out: Papp, Cellulose Membrane (RC)
Procedure: (§1) Permeability experiments were performed using the reverse dialysis set-up adapted to the Franz diffusion cell (PermeGear, Inc., Hellertown, PA, USA). This method was successfully applied by di Cagno et al. for the permeability evaluation of a whole set of diverse drugs. The donor solution of the investigated compound was placed in the lower chamber. The membrane was mounted between the donor and acceptor chambers. At the start of the experiment, the upper (acceptor) compartment was filled with the respective pure buffer. The donor solution was stirred with a magnetic stirrer bar. The samples of 0.5 mL were withdrawn from the receptor solution each 30 min over 5 h and replaced with the same volume of pure buffer. The volume of the donor solution in the lower compartment was 7 mL and the receptor volume was 1 mL. A schematic diagram of the equipment is illustrated in Figure 2.
(§2) Two types of barriers were applied for the permeability evaluation: the regenerated cellulose membrane (RC) with a molecular weight cut off MWCO 12–14 kDa (Standard Grade RC Dialysis Membrane, Flat Width 45 mm) and the PermeaPad (PP) barrier (PHABIOC, Germany, www.permeapad.com, accessed on 20 May 2021). The PermeaPad barrier was used as received from the supplier. The cellulose membrane was pretreated with distilled water for 30 min and the traces of water were removed with filter paper before use. The membrane effective surface area was 0.785 cm^2. Buffer solution pH 2.0 was applied throughout the experiment due to impossibility of the drug detection in the receptor solution at pH 7.4, where S-119 solubility is extremely low. […] The temperature of the system was maintained at 37.0 ± 0.1 °C. The concentrations of the sample solutions were measured using spectrophotometer (Spectramax 190; Molecular devices, Molecular Devices Corporation, California, CA, USA) in 96-well UV black plates (Costar) at λ = 261 nm. The permeation plots were constructed as the amount of the permeated drug over the surface area (dQ/A) versus time (t). Flux (J) was calculated as a slope of permeation plots by the equation:(2) J=dQ/A×dt
(§3) The slope (J) normalized by the concentration of the drug in the donor compartment (C0) represents the apparent permeability coefficient (Papp):(3) Papp=J/C0
(§4) The average value of Papp from at least 3 experiments was taken into consideration.

[2] = Micellar solubilization by non-ionic surfactants (solubilization capacity, micelle/water partition); conditions: F127; pH 7.4; 25 °C
Procedure: Moreover, the increase in the surfactant concentration can reduce the number of hydrogen binding sites available for the association of the compound and surfactant. At that point, the surfactant molecules interact with water, affect its structuring and hinder the interactions with positively charged species. […] To this end, the solubilization capacity (χ) representing the amount of the compound that can be solubilized by one mole of polymer was calculated using the following equation [53]:(4) χ=(S2−S20)/(Csurf−CMC) where S2 and S20 are the total solute solubility at a particular concentration of surfactant solution and the intrinsic solute solubility, respectively; Csurf is the surfactant concentration; CMC is the surfactant critical micelle concentration. All concentrations are expressed in molarity. Taking into account that above the CMC the concentration of surfactant monomers is equal to the CMC, the concentration of micelles can be determined as (Csurf − CMC). The CMC of Brij S20 and F127 were taken from the literature [54, 55, 56, 57]. […] Besides this, a micelle/water molar partition coefficient (Km/w) was derived using the following equation [58]:(5) Km/w=Sm/S20=(S2−S20)/S20
The favorable/unfavorable character of any process can be assessed using Gibbs free energy.

[3] = Phase solubility study: equilibrium solubility of S-119 in buffers with excipients; assay type: physicochemical; conditions: for solubility enhancement vs pure buffer: pH 2.0
Procedure: (§5) Excess amounts of S-119 were added to buffered aqueous solutions containing increasing concentrations of excipients.
(§6) In order to analyze the information on solubilization, micelle formation and complexation obtained in the present study, the standard Gibbs energy (at 25 °C) of the outlined processes was calculated by the following equations:(7) ΔGS0(Cexc)=−RTlnS2/S20, where ΔGS0(Cexc) —the standard free energy of solubilization—transferring a compound from the aqueous buffer solution to the excipient solution of a defined concentration (Cexc), S20 and S2 —the solubility of a drug in pure buffer and at a defined excipient concentration, respectively; R is the universal gas constant; T is the standard temperature of 25 °C (8) ΔGC^0=−RTlnKs where ΔGC0 is the change of the complexation Gibbs energy, KS is the stability constant of the complexation reaction (9) ΔGm/w0=−RTlnKm/w where ΔGm/w0 is the standard Gibbs energy of the partition between the micelle and water phases, Km/w is the partition coefficient.

[4] = cited from earlier work
[5] = Complexation with α-CD (phase solubility, Higuchi and Connors); assay type: physicochemical; conditions: for Stability constant (KS): S-119/α-CD complex; for Stability constant (KS) / Complexation efficiency (CE) / Gibbs free energy of complexation (ΔGC0): 25 °C; for Complexation efficiency (CE): S-119/α-CD
Procedure: as §5, §6

[6] = Complexation with O-M-β-CD (phase solubility, Higuchi and Connors); assay type: physicochemical; conditions: for Gibbs free energy of complexation (ΔGC0) / Stability constant (KS) / Complexation efficiency (CE): 25 °C; for Stability constant (KS): S-119/O-M-β-CD complex; for Complexation efficiency (CE): S-119/O-M-β-CD
Procedure: as §5, §6

[7] = Complexation with β-CD (phase solubility, Higuchi and Connors); assay type: physicochemical; conditions: for Stability constant (KS): S-119/β-CD complex; for Stability constant (KS) / Complexation efficiency (CE) / Gibbs free energy of complexation (ΔGC0): 25 °C; for Complexation efficiency (CE): S-119/β-CD
Procedure: as §5, §6

[8] = In vitro permeability, Franz diffusion cell, PermeaPad barrier; assay type: in vitro ADME; conditions: for Papp at 5 h: read-out: Papp, PermeaPad (PP)
Procedure: as §1, §2, §3, §4

[9] = design: method as in doi:10.1016/j.molliq.2021.116535; conditions: cited from earlier work
[10] = Complexation with HP-β-CD (phase solubility, Higuchi and Connors); assay type: physicochemical; conditions: for Gibbs free energy of complexation (ΔGC0) / Stability constant (KS) / Complexation efficiency (CE): 25 °C; for Stability constant (KS): S-119/HP-β-CD complex; for Complexation efficiency (CE): S-119/HP-β-CD
Procedure: as §5, §6

[11] = cited from earlier work; remark: listed apart in the source
[12] = cationic species of FCZ in acidic solution; first value, CD not printed (β-CD assumed); cited from earlier work
[13] = donor: pure buffer pH 2.0; cited from earlier work
[14] = cationic species of FCZ in acidic solution; second value, CD not printed (HP-β-CD assumed); cited from earlier work
[15] = donor: 1.5 w/v% 6-O-M-β-CD in buffer pH 2.0, 37 °C
[16] = donor: 1.5 w/v% HP-β-CD in buffer pH 2.0, 37 °C
[17] = donor: 1.5 w/v% β-CD in buffer pH 2.0, 37 °C
[18] = donor: pure buffer pH 2.0, 37 °C
[19] = pH 2, donor: 1.5 w/v% 6-O-M-β-CD in buffer pH 2.0, 37 °C
[20] = pH 2, donor: 1.5 w/v% HP-β-CD in buffer pH 2.0, 37 °C
[21] = pH 2, donor: 1.5 w/v% β-CD in buffer pH 2.0, 37 °C
[22] = pH 2, donor: pure buffer pH 2.0, 37 °C

With OC(CN1CCN(CC(O)(Cn2cncn2)c2ccc(F)cc2F)CC1)(Cn1cncn1)c1ccc(F)cc1F (stereo not drawn) [S-119, 3,3′-(piperazine-1,4-diyl)bis(2-(2,4-difluorophenyl)-1-(1H-1,2,4-triazol-1-yl)propan-2-ol)] the “permeability decrease vs pure buffer” value ([1]; RC membrane, 1.5 w/v% HP-β-CD donor solution, pH 2.0) was 1.87 fold, the “flux J, Cellulose Membrane (RC)” value [1, 15] was 2.68 × 10^−5 µM∙cm^−2∙s^−1 and the “flux J, Cellulose Membrane (RC)” value [1, 16] was 2.21 × 10^−5 µM∙cm^−2∙s^−1. For the same compound, the “flux J, Cellulose Membrane (RC)” value [1, 17] was 2.90 × 10^−5 µM∙cm^−2∙s^−1, the “flux J, Cellulose Membrane (RC)” value [1, 18] was 3.49 × 10^−5 µM∙cm^−2∙s^−1 and the Papp at 5 h [1, 19] was 23.1 ×10⁻⁶ cm/s. For the same compound, the Papp at 5 h [1, 20] was 14.5 ×10⁻⁶ cm/s, the Papp at 5 h [1, 21] was 19.6 ×10⁻⁶ cm/s and the Papp at 5 h [1, 22] was 27.1 ×10⁻⁶ cm/s. For the same compound, the “Gibbs free energy of micelle formation (ΔGm/w0)” value [2] was -6.205 kcal/mol, the “solubility growth vs pure buffer” value ([3]; 0.0015 M β-CD, pH 7.4) was 6.8 fold and the “solubility growth vs pure buffer” value ([3]; 0.01 M HP-β-CD, pH 7.4) was 24 fold. The “solubility growth vs pure buffer” value ([3]; 0.07 M HP-β-CD, pH 7.4) was 151 fold, the “solubility growth vs pure buffer” value ([3]; 20% PVP) was 232 fold and the “solubility enhancement vs pure buffer” value ([3]; 10 w/v% PEG 6000) was 1.45 fold. The “solubility enhancement vs pure buffer” value ([3]; 10 w/v% PEG 35000) was 1.20 fold, the “solubility enhancement vs pure buffer” value ([3]; 10 w/v% PVP) was 1.32 fold and the “growth of solubility vs pure buffer” value ([3]; pH 7.4, 10 w/v% Brij S20) was 199 fold. The “growth of solubility vs pure buffer” value ([3]; pH 7.4, 10 w/v% F-127) was 281 fold, the “extent of the solubilization vs pure buffer” value ([3]; pH 7.4, PEG 6000) was 193 fold and the “extent of the solubilization vs pure buffer” value ([3]; pH 7.4, PVP) was 232 fold. For the same compound, the “logD^oct” value [4] was 1.43, the “Stability constant (KS)” value ([5]; pH 2.0) was 5.0 ± 0.2 M⁻¹ and 5 M⁻¹ and the “Stability constant (KS)” value ([5]; pH 7.4) was 304.4 ± 17 M⁻¹. For the same compound, the “Complexation efficiency (CE)” value ([5]; pH 2.0) was 2.2%, the “Complexation efficiency (CE)” value ([5]; pH 7.4) was 1.2% and the “phase solubility diagram type (Higuchi and Connors classification)” value (“phase solubility diagram type” for short) ([5]; α-CD, both pHs) was “AL-type”. The “Gibbs free energy of complexation (ΔGC0)” value ([5]; α-CD, pH 2.0) was -0.956 kcal/mol, the “Gibbs free energy of complexation (ΔGC0)” value ([5]; α-CD, pH 7.4) was -3.387 kcal/mol and the “phase solubility diagram type” value ([6]; O-M-β-CD, both pHs) was “AL-type”. For the same compound, the “Gibbs free energy of complexation (ΔGC0)” value ([6]; O-M-β-CD, pH 2.0) was -1.74 kcal/mol, the “Gibbs free energy of complexation (ΔGC0)” value ([6]; O-M-β-CD, pH 7.4) was -4.866 kcal/mol and the “Stability constant (KS)” value ([6]; pH 2.0) was 18.7 ± 0.7 M⁻¹. The “Stability constant (KS)” value ([6]; pH 7.4) was 3693.4 ± 185.3 M⁻¹, the “Complexation efficiency (CE)” value ([6]; pH 2.0) was 8.3% and the “Complexation efficiency (CE)” value ([6]; pH 7.4) was 14.8%. The “Stability constant (KS)” value ([7]; pH 2.0) was 27.4 ± 1.0 M⁻¹ and 27.4 M⁻¹, the “Stability constant (KS)” value ([7]; pH 7.4) was 4424.9 ± 162.7 M⁻¹ and the “Complexation efficiency (CE)” value ([7]; pH 2.0) was 12.2%. The “Complexation efficiency (CE)” value ([7]; pH 7.4) was 17.7%, the “phase solubility diagram type” value ([7]; β-CD, linear region 0 to 0.003 M CD) was “BS-type” and the “Gibbs free energy of complexation (ΔGC0)” value ([7]; β-CD, pH 2.0) was -1.96 kcal/mol. For the same compound, the “complex stability relative to FCZ complex” value ([7]; β-CD, pH 7.4) was 47 fold, the “Gibbs free energy of complexation (ΔGC0)” value ([7]; β-CD, pH 7.4) was -4.974 kcal/mol and the “permeability class (classification of di Cagno et al. for PermeaPad)” value ([8]; 1.5 w/v% CDs in donor solution, pH 2.0) was “low-medium permeability class”. The “permeability decrease vs pure buffer” value ([8]; PP barrier, 1.5 w/v% O-M-β-CD donor solution, pH 2.0) was 2.63 fold, the “permeability class (classification of di Cagno et al. for PermeaPad)” value ([8]; buffer pH 2.0) was “highly permeated substance” and the “flux J, PermeaPad (PP)” value [8, 15] was 1.01 × 10^−5 µM∙cm^−2∙s^−1. For the same compound, the “flux J, PermeaPad (PP)” value [8, 16] was 1.00 × 10^−5 µM∙cm^−2∙s^−1, the “flux J, PermeaPad (PP)” value [8, 17] was 9.93 × 10^−6 µM∙cm^−2∙s^−1 and the “flux J, PermeaPad (PP)” value [8, 18] was 2.20 × 10^−5 µM∙cm^−2∙s^−1. The Papp at 5 h [8, 19] was 5.62 ×10⁻⁶ cm/s, the Papp at 5 h [8, 20] was 7.81 ×10⁻⁶ cm/s and the Papp at 5 h [8, 21] was 6.12 ×10⁻⁶ cm/s. The Papp at 5 h [8, 22] was 14.8 ×10⁻⁶ cm/s, the “solubility in aqueous solutions” value ([9]; pH 2.0) was 4450 µM (≈ 2490 µg/mL) and the “solubility in aqueous solutions” value ([9]; pH 7.4) was 40.1 µM (≈ 22.5 µg/mL). For the same compound, the “phase solubility diagram type” value ([10]; HP-β-CD, both pHs) was “AL-type”, the “Gibbs free energy of complexation (ΔGC0)” value ([10]; HP-β-CD, pH 2.0) was -1.57 kcal/mol and the “complex stability relative to FCZ complex” value ([10]; HP-β-CD, pH 7.4) was 52 fold. For the same compound, the “Gibbs free energy of complexation (ΔGC0)” value ([10]; HP-β-CD, pH 7.4) was -4.577 kcal/mol, the “Stability constant (KS)” value ([10]; pH 2.0) was 14.0 ± 0.6 M⁻¹ and the “Stability constant (KS)” value ([10]; pH 7.4) was 2261.0 ± 79.0 M⁻¹. The “Complexation efficiency (CE)” value ([10]; pH 2.0) was 6.2% and the “Complexation efficiency (CE)” value ([10]; pH 7.4) was 9.1%.
For OC(Cn1cncn1)(Cn1cncn1)c1ccc(F)cc1F [FCZ, fluconazole], the solubility growth ([11]; 0.0016 M aqueous β-CD solution) is listed as 1.1 fold, the solubility increase ([11]; 0.004 M HP-β-CD) is listed as 1.2 fold and the higher solubility ([11]; 0.08 M aqueous HP-β-CD) is listed as 4 fold. For the same compound, the solubility enhancement ([11]; aqueous 0.02 M β-CD) was 1.84 fold, the “flux J, Cellulose Membrane (RC)” value ([1]; 5 h, pH 2) was 1.31 × 10^−4 µM∙cm^−2∙s^−1 and the Papp at 5 h [1, 22] was 49 ×10⁻⁶ cm/s. For the same compound, the KS [12] was 10.7 M⁻¹, the “Papp, PermeaPad (PP)” value [13] was “(1.74 ± 0.03) × 10^−5 cm∙s^−1” and the “flux J, PermeaPad (PP)” value ([8]; 5 h, pH 2) was 3.50 × 10^−5 µM∙cm^−2∙s^−1. The KS [14] was 13.5 M⁻¹.
